Experimental data: ChEMBL document CHEMBL2321681, “Design, synthesis, and evaluation of imidazo[4,5-c]pyridin-4-one derivatives with dual activity at angiotensin II type 1 receptor and peroxisome proliferator-activated receptor-γ” (Bioorg Med Chem Lett, 2013)
Values after ≈ are worked out from the molar mass of the structure shown.

Columns and labels:
[1] = molecular target: T1, Peroxisome proliferator-activated receptor gamma (Homo sapiens, UniProt P37231); experiment: Partial agonist activity at human PPARgamma-LBD/Gal4 DNA binding domain by transactivation assay
T1 sequence (P37231 whole entry): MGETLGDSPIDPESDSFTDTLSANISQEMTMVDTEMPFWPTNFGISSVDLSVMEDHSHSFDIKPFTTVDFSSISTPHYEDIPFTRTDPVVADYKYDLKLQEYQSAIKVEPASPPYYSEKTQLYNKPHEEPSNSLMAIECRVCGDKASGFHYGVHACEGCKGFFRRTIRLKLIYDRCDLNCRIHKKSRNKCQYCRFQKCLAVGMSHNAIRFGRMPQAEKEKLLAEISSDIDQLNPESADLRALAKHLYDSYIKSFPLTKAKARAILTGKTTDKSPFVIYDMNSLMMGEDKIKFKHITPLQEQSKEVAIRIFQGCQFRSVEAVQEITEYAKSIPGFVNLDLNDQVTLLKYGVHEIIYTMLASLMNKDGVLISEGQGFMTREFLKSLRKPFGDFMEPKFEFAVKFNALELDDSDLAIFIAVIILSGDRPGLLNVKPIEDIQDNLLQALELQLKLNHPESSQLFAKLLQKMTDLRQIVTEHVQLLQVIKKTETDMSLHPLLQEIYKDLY

[2] = molecular target: T2, Type-1 angiotensin II receptor (Homo sapiens, UniProt P30556)
T2 sequence (P30556 whole entry): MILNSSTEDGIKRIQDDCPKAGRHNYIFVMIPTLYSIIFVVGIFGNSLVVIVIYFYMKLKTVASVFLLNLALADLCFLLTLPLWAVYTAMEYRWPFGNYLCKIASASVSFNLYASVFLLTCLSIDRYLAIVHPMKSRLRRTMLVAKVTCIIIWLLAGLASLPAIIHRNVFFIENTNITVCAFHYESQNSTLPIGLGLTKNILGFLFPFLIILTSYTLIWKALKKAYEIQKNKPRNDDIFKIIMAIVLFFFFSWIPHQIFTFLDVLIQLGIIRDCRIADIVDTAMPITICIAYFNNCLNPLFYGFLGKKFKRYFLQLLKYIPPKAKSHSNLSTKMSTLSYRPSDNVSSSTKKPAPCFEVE

[3] = molecular target: T3, Peroxisome proliferator-activated receptor alpha (Homo sapiens, UniProt Q07869); experiment: Agonist activity at PPARalpha (unknown origin)
T3 sequence (Q07869 whole entry): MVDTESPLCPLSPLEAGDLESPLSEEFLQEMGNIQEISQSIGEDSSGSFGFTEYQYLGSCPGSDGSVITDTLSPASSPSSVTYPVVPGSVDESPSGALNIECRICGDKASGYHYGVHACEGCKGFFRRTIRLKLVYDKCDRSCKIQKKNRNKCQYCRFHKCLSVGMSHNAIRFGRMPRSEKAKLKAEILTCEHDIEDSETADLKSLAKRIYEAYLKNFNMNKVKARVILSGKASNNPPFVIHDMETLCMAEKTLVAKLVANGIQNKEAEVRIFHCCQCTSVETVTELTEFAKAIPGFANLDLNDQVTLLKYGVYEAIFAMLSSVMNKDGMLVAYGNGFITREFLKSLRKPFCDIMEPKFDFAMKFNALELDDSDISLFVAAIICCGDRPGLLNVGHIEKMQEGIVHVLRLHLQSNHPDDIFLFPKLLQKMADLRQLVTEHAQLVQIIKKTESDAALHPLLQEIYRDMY

[4] = molecular target: T4, Peroxisome proliferator-activated receptor delta (Homo sapiens, UniProt Q03181); experiment: Agonist activity at PPARbeta (unknown origin)
T4 sequence (Q03181 whole entry): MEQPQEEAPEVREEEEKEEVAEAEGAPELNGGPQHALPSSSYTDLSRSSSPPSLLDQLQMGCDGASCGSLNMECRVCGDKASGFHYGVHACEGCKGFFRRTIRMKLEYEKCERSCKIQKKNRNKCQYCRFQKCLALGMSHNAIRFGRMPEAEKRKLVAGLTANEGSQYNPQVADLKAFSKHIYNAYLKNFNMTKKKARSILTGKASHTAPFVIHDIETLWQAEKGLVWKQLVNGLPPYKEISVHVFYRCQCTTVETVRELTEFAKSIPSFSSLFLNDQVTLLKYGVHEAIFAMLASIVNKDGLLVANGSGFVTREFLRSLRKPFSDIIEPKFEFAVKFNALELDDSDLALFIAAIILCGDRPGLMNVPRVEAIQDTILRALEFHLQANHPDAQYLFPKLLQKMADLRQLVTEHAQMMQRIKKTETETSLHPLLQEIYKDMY

[5] = Octanol-buffer distribution co-efficient, log D of the compound by shake-flask method; type: physicochemical
[6] = Intrinsic clearance in human liver microsomes
[7] = Kinetic solubility of the compound in potassium phosphate buffer at pH 6.5; type: physicochemical; conditions: read-out: Kinetic_solubility
[8] = molecular target: Cytochrome P450 3A4 (Homo sapiens, UniProt P08684); experiment: Inhibition of CYP3A4 (unknown origin); type: ADME
Sequence of Cytochrome P450 3A4 (P08684 whole entry): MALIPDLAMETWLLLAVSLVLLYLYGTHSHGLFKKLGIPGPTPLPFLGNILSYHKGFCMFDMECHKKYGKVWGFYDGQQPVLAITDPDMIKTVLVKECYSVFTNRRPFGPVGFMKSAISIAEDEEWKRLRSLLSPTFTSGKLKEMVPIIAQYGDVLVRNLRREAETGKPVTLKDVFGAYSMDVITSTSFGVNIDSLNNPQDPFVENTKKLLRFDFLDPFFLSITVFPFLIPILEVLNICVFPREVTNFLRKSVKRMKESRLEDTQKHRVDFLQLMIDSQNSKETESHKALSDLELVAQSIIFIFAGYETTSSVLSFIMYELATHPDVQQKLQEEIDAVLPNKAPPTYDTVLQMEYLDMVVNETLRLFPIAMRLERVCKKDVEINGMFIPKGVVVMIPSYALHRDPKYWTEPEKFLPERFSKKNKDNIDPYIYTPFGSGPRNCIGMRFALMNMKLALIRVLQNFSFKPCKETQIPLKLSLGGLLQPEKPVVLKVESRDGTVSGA

[9] = Permeability of the compound by PAMPA; type: ADME; conditions: read-out: permeability
[10] = molecular target: Cytochrome P450 2D6 (Homo sapiens, UniProt P10635); experiment: Inhibition of CYP2D6 (unknown origin); type: ADME
Sequence of Cytochrome P450 2D6 (P10635 whole entry): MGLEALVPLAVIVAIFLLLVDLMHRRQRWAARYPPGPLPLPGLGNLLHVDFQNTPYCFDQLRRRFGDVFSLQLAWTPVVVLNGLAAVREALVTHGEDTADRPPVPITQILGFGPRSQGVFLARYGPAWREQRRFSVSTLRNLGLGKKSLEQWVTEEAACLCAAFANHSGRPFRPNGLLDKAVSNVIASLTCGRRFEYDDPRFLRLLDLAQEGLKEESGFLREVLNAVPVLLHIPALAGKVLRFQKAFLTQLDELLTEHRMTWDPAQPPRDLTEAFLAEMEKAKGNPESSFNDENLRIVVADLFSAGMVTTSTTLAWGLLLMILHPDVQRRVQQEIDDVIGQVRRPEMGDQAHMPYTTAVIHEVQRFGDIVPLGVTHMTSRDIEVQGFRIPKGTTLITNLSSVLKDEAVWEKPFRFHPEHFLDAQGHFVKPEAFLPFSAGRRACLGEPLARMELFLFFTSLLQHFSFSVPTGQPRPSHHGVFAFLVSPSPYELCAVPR

Row | EC50 [1] [µM] | IC50 [2] [µM] | Structure (SMILES) | further results
1 | 0.292 | 0.0127 | CCc1nc2ccn(Cc3ccccc3)c(=O)c2n1[C@H]1CCc2cc(-c3ccccc3-c3nnn[nH]3)ccc21 | EC50 [3]: > 50 µM; EC50 [4]: > 50 µM
2 | 0.108 | 0.0369 | CCc1nc2ccn(Cc3cccc(C)c3)c(=O)c2n1[C@H]1CCc2cc(-c3ccccc3-c3nnn[nH]3)ccc21 | 
3 | 0.02 | 0.0293 | CCc1nc2ccn(Cc3ccccc3OC(F)(F)F)c(=O)c2n1[C@H]1CCc2cc(-c3ccccc3-c3nnn[nH]3)ccc21 | 
4 | > 25 | 0.25 | CCc1nc2ccn(Cc3ccncc3)c(=O)c2n1[C@H]1CCc2cc(-c3ccccc3-c3nnn[nH]3)ccc21 | 
5 | > 100 | 0.0244 | CCc1nc2ccn(CC(=O)N(C)C)c(=O)c2n1[C@H]1CCc2cc(-c3ccccc3-c3nnn[nH]3)ccc21 | 
6 | 1.25 | 0.0198 | CCc1nc2ccn(CC(=O)OCc3ccccc3)c(=O)c2n1[C@H]1CCc2cc(-c3ccccc3-c3nnn[nH]3)ccc21 | 
7 | 0.097 | 0.0051 | CCc1nc2ccn(Cc3ccccc3C)c(=O)c2n1[C@H]1CCc2cc(-c3ccccc3-c3nnn[nH]3)ccc21 | logD [5]: 2.6; microsomal CLint [6]: 32.6 µL/min/mg; solubility kinetic [7]: 3.5 µM (≈ 1.85 µg/mL); inhibition (INH) [8]: 14%; Papp [9]: 3.6 ×10⁻⁶ cm/s; inhibition (INH) [10]: 6%
8 | 0.103 | 0.0377 | CCc1nc2ccn(Cc3ccccc3F)c(=O)c2n1[C@H]1CCc2cc(-c3ccccc3-c3nnn[nH]3)ccc21 | 
9 | 0.187 | 0.0941 | CCc1nc2ccn(Cc3ccccc3C(F)(F)F)c(=O)c2n1[C@H]1CCc2cc(-c3ccccc3-c3nnn[nH]3)ccc21 | 
10 | 4.47 | 0.0634 | CCc1nc2ccn(Cc3c(C)noc3C)c(=O)c2n1[C@H]1CCc2cc(-c3ccccc3-c3nnn[nH]3)ccc21 | 
11 | 3.64 | 0.0452 | CCc1nc2ccn(Cc3cccnc3)c(=O)c2n1[C@H]1CCc2cc(-c3ccccc3-c3nnn[nH]3)ccc21 | 
12 | 0.295 | 0.007 | CCc1nc2c(C)cn(Cc3ccccc3C#N)c(=O)c2n1[C@H]1CCc2cc(-c3ccccc3-c3nnn[nH]3)ccc21 | logD [5]: 2.5; microsomal CLint [6]: 20.7 µL/min/mg; solubility kinetic [7]: 5.2 µM (≈ 2.87 µg/mL); inhibition (INH) [8]: 0%; Papp [9]: 19 ×10⁻⁶ cm/s; inhibition (INH) [10]: 0%
13 | 1.71 | 0.0194 | CCc1nc2ccn(CC(C)C)c(=O)c2n1[C@H]1CCc2cc(-c3ccccc3-c3nnn[nH]3)ccc21 | 
14 | 0.685 | 0.0135 | CCc1nc2ccn(Cc3ccccc3C#N)c(=O)c2n1[C@H]1CCc2cc(-c3ccccc3-c3nnn[nH]3)ccc21 | logD [5]: 1.7; microsomal CLint [6]: 14 µL/min/mg; solubility kinetic [7]: 11.7 µM (≈ 6.3 µg/mL); inhibition (INH) [8]: 31%; Papp [9]: 10.7 ×10⁻⁶ cm/s; inhibition (INH) [10]: 11%
15 | 0.042 | 0.0068 | CCc1nc2c(C)cn(Cc3ccccc3C)c(=O)c2n1[C@H]1CCc2cc(-c3ccccc3-c3nnn[nH]3)ccc21 | logD [5]: 2.9; microsomal CLint [6]: 37.5 µL/min/mg; inhibition (INH) [8]: 3.5%; Papp [9]: 7 ×10⁻⁶ cm/s; inhibition (INH) [10]: 4.5%
16 | 0.159 | 0.0674 | CCc1nc2ccn(Cc3cccc(F)c3)c(=O)c2n1[C@H]1CCc2cc(-c3ccccc3-c3nnn[nH]3)ccc21 | 
17 | 3.58 | 0.0638 | CCc1nc2ccn(Cc3ccccn3)c(=O)c2n1[C@H]1CCc2cc(-c3ccccc3-c3nnn[nH]3)ccc21 | 
18 | > 100 | 0.593 | CCc1nc2cc[nH]c(=O)c2n1[C@H]1CCc2cc(-c3ccccc3-c3nnn[nH]3)ccc21 | 
19 | 0.942 | 0.041 | CCc1nc2ccn(CC3CCCCC3)c(=O)c2n1[C@H]1CCc2cc(-c3ccccc3-c3nnn[nH]3)ccc21 | 
20 | 0.449 | 0.0816 | CCc1nc2ccn(Cc3cccc(C(F)(F)F)c3)c(=O)c2n1[C@H]1CCc2cc(-c3ccccc3-c3nnn[nH]3)ccc21 | 

Row | Structure (SMILES) | EC50 [1] [µM] | IC50 [2] [µM] | further results
21 | CCc1nc2ccn(CC(=O)O)c(=O)c2n1[C@H]1CCc2cc(-c3ccccc3-c3nnn[nH]3)ccc21 | > 100 | 0.348 | 
